Source: US11331367B1, “Compounds and methods for inhibiting protozoan parasites” (University of South Florida, priority 2018, dated 2022)
Non-standard residues stand in square brackets, D forms with d. Residues, ends and D or L forms follow the SMILES beside them. *: point of attachment. NMeI = CC[C@H](C)[C@H](NC)C(=O)O; dNMeF = CN[C@H](Cc1ccccc1)C(=O)O; X1 = C(=C/c1c[nH]c2ccccc12)/N*; NMeV = CN[C@H](C(=O)O)C(C)C; NMeA = CN[C@@H](C)C(=O)O

System: Plasmodium falciparum liver-stage parasites
Experiment: microbe, parasite or virus in culture
Format: cell-based
Settings: for inhibition of P. falciparum liver-stage development (in words): in vitro liver model, drug treatment at 10 μM
Experimental: Bioactivity of friomaramide was evaluated for inhibition of Plasmodium falciparum liver-stage parasites and primary human hepatocyte (PHH) toxicity using an in vitro liver model. In brief, cryopreserved PHHs were seeded at 1.8×10^4 cells per well in a 384-well microplate. Freshly isolated P. falciparum sporozoites were inoculated at 2.0×10^4 per well with subsequent drug treatment at 10 μM. Media was changed daily with fresh addition of drug for 3 days until experiment fixation on day 6.

| SMILES | inhibition of P. falciparum liver-stage development (in words) | inhibition at 10 µM (Plasmodium falciparum, Hepatocyte, read-out: inhibition of P. falciparum liver-stage growth) [%] |
| --- | --- | --- |
| C[C@H]1[C@@H](O)O[C@@H]2O[C@@]3(C)CC[C@H]4[C@H](C)CC[C@@H]1[C@@]24OO3 [DHA] | does not inhibit | – |
| CC[C@H](C)[C@@H](C(=O)N/C=C\c1c[nH]c2ccccc12)N(C)C(=O)[C@H]([C@@H](C)CC)N(C)C(=O)[C@H](C)N(C)C(=O)[C@H](C(C)C)N(C)C(=O)[C@@H](Cc1ccccc1)N(C)C(C)=O [friomaramide] (Ac-[dNMeF][NMeV][NMeA][NMeI][NMeI]-X1) | block sporozoite invasion and subsequent liver-stage parasite development | – |
| COc1cc(NC(C)CCCN)c2ncccc2c1 (stereo not drawn) [primaquine] | – | > 90 |
